Test results published in patent publication US10183059B2, “Method for treating microbial infection” (GENERAL BIOLOGICALS CORPORATION, priority 2015, dated 2019).
No end group written: not given here.

Experiments:
[1] = test system: SC5314 strain of Candida albicans; experiment: Effect of cell wall disrupting agents on peptide activity, CFU; format: cell-based; conditions: Proteinase K 1 mg/ml, 30 min
Description: The SC5314 strain of Candida albicans (wild type or WT) were grown overnight in YPD broth at 30° C. The overnight culture was then subcultured into fresh YPD medium and grown for 5 h. Cells were treated with Proteinase K (1 mg/ml) for 30 min or Zymolyase (5 mg/ml) for 1 h at 30° C., followed by reacting with different concentrations of the peptides for 1 h, respectively. After that, samples were serially diluted in phosphate-buffered saline (PBS) and 15 μl of each diluent was spotted onto YPD agar plates. Colony-forming units were counted after incubation at 30° C. for 24 h. The data were represented as the mean values±SD of three independent experiments.

[2] = test system: C. parapsilosis; format: cell-based
Description: (§1) The antimicrobial activities against clinical isolates and drug-resistant strains of P-113 and its derived peptides were examined. The present invention evaluated the effect of P-113 on 15 clinical isolates of fungi belonging to the genus Candida (see Table 1). Clinical isolates were cultivated overnight at 30° C. under shaking in a YPD cultural broth (1% yeast extract, 2% peptone and 2% glucose), cells were centrifuged and washed with YPD, then cultivated again in a YPD culture broth allowing to grow for 5 hours (initial optical density at 600 nm [OD600]˜0.5). Cells were washed with PBS and then collected by centrifugation, redissolved in a culture broth (modified RPMI 1640 medium, LYM), the cell concentration was adjusted to ˜0.1 [OD600]/ml and then treated with P-113. After the mixed solution was cultivated under shaking at 37° C. and 5% CO2 for 24 hours, absorbance measurement (OD value) was performed to determine the minimum inhibitory concentration (MIC).

[3] = test system: C. dubliniensis; format: cell-based
Description: as §1

[4] = Circular dichroism secondary structure in 85% TFE, BeStSel analysis; format: physicochemical; conditions: CD analyzed by BeStSel
Description: The present invention utilized a Circular Dichroism Spectrometer (AVIV Company) to observe the secondary structure of the antimicrobial peptides. Circular dichoism spectra of P-113 and its derivatives were recorded over the wavelength range of 195-260 nm with readings every 1 nm by using a quartz cuvette having 1 mm optical path length. Ellipticities were represented as mean residue molar ellipticity (MRE). P-113, P-113Du and P-113Tri were dissolved in 85% trifluoroethanol (TFE) solution.

[5] = test system: SC5314 strain of Candida albicans; experiment: Intracellular ROS assay (DHE, MitoSOX Red, flow cytometry); format: cell-based; conditions: 0.25 μM, 1 h, 37° C.
Description: The SC5314 strain of Candida albicans (wild type or WT) were grown overnight in YPD broth at 30° C. The overnight culture was then subcultured into fresh YPD medium and grown for 5 h. Cells were harvested by centrifugation, washed twice with 12.5 mM sodium acetate (NaOAc) and resuspended in 12.5 mM NaOAc to a concentration of 1*10^7 cells/ml. The cells were treated with various AMPs (0.25 μM) for 1 h at 37° C. After treatment, cells were washed twice with 12.5 mM NaOAc. Dihydroethidium (DHE) is a superoxide indicator, and MitoSOX Red (MitoSOX) was introduced for selective detection of superoxide in the mitochondria of live cells. The intracellular ROS was measured using DHE (20 μM) staining for 30 min and MitoSOX Red (5 μM) for 60 min in PBS. Fluorescent detection was performed by flow cytometry.

[6] = test system: Candida albicans strain SC5314; experiment: Fungal suppression at various concentrations and reaction times, colony count; format: cell-based; conditions: 37° C., 12.5 mM NaOAc
Description: To examine the activity of P-113 for killing fungus, fungal suppression assays were carried out at various concentrations or reaction times. Candida albicans strain SC5314 (wild type, WT) was cultivated in the Yeast extract Peptone Dextrose medium (YPD medium) at 30° C. overnight, transferred to 5 ml of fresh YPD culture broth, and then cultivated again for another 5 hours. After fungi were collected by centrifugation, the fungi were washed with 12.5 mM sodium acetate (NaOAc) twice, redissolved in each well of a 96-well plate with 12.5 mM NaOAc (1.5×10^6 cells in 0.1 ml of 12.5 mM NaOAc). Then, the fungi were treated with different concentrations of P-113 for different reaction times at 37° C. Around […] of Phosphate-buffered saline (PBS) was added into each well, took 25 μl of liquid fungi suspension out and inoculated on a solid YPD medium, after being cultivated at 30° C. for 24 hours, the number of colonies were counted.

[7] = test system: och1Δ mutant strain; experiment: Susceptibility of och1Δ mutant, CFU; format: cell-based, Candida albicans; conditions: och1Δ versus SN250, 1 h
Description: The SN250 and och1Δ mutant strains were grown overnight in YPD broth at 30° C. The overnight culture was then subcultured into fresh YPD medium and grown for 5 h. Cells were treated with different concentration of peptides for 1 h. After treatment, samples were serially diluted in PBS and 15 μl of each diluent was spotted onto YPD agar plates. Colony-forming units were counted after 24 h incubation at 30° C. The data were represented as the mean values±SD of three independent experiments.

[8] = test system: Candida albicans strain SC5314 biofilms; experiment: Biofilm cell viability, XTT reduction assay; format: cell-based; conditions: biofilm cells, 37° C., 1 hr
Description: Candida albicans strain SC5314 was cultivated in a YPD medium overnight and then transferred to a fresh YPD culture broth, diluted until the concentration was 3×10^5 cells/ml. 100 μl of liquid fungal suspension was placed in a 96-well plate for cultivation at 37° C. for 24 hours, formed biofilms were washed with sodium acetate (12.5 mM). Then, sequence-diluted antimicrobial peptides P-113, P-113Du and P-113Tri (0-200 μM) were added, reacted at 37° C. for 1 hour, washed with PBS twice. The cellular activity of the biofilms was determined by using XTT (2,3-bis(2-methoxy-4-nitro-5-sulfophenyl)-2H-tetrazolium-5-carboxanilide) reduction assays to analyze the cell survival rate. To perform this reaction, XTT (0.5 mg/ml) and Menadione (0.5 μM) were dissolved in PBS and then added into a 96-well plate formed by biofilms, reacted at 30° C. for 30 minutes, the optical density was measured at wavelength 490 nm (OD490). The cellular activity of the biofilms was represented as a percentage.

[9] = test system: Wild type (WT) Candida albicans; experiment: Salt and pH tolerance of candidacidal activity; format: cell-based
Description: Wild type (WT) Candida albicans was cultivated in a YPD medium at 30° C. overnight and then transferred to 5 ml of fresh YPD culture broth, cultivated subsequently for another 5 hours. After the fungi were collected by centrifugation, washed with 12.5 mM sodium acetate twice, redissolved with 12.5 mM NaOAc to yield a fungal concentration of 1.5×10^6 cells/ml. Fifty microliters of liquid fungal suspension was taken out to mix with 50 μl of sequentially diluted antimicrobial peptides and placed in different wells of a 96-well plate allowing to react for 1 hour at 37° C. (as shown in FIG. 4(A). Then, 50 μl of liquid fungal mixture was taken out and 450 μl PBS was added to terminate the reaction. Finally, 25 μl was taken out and inoculated on a solid YPD medium.

For “AKRHHGYKRKFH-NH2 [P-113, AKRHHGYKRKFH-NH2]”, the “candidacidal activity after proteinase K treatment of cells” value [1] was “failed to kill C. albicans”, the “Minimum Inhibitory Concentration” value [2] was 0.78 µg/mL and the “Minimum Inhibitory Concentration” value [3] was 6.25 µg/mL. For the same substance, the “content of the α-helical secondary structure” value [4] was 2.9%, the “intracellular ROS formation” value [5] was “induced intracellular ROS formation” and the “anti-Candida activity, dependence on concentration and time” value [6] was “time-dependent and dose-dependent”. For the same substance, the “susceptibility of och1Δ mutant to peptide” value [7] was “resistant”, the “concentration causing 50% reduction in the metabolic activity (50% RMA)” value [8] was > 300 µg/mL and the candidacidal activity ([9]; 12.5 mM sodium acetate, 37° C., 1 hour) was “exhibited candidacidal activity”. The candidacidal activity ([9]; 62.25 and 93.75 mM salt) was “reduced activity”, the candidacidal activity ([9]; pH 4.5) was “activity was lost” and the candidacidal activity ([9]; pH 6 and 8) was “exhibited candidacidal activity”.
